Where “and” joins values, the source holds several entries; their conditions need not be identical. Equal entries are not always repeated.
Settings: Crystal; for mass density: 298.15 K, 101.33 kPa, measurement of volume and mass of pellet; for vapor or sublimation pressure: Calculated from knudsen effusion weight loss

c1ccc(-c2cccc(-c3ccccc3)c2)cc1 [m-terphenyl]
Settings	mass density [kg/m3]	vapor or sublimation pressure
–	1140	–
337.28 K	–	6.28e-05 kPa and 6.44e-05 kPa and 6.48e-05 kPa
339.22 K	–	8.09e-05 kPa and 8.13e-05 kPa and 7.88e-05 kPa
341.11 K	–	0.000101 kPa and 9.73e-05 kPa
343.27 K	–	0.000133 kPa and 0.00013 kPa and 0.000134 kPa
345.21 K	–	0.000164 kPa and 0.000163 kPa and 0.000162 kPa
347.1 K	–	0.000197 kPa and 0.000204 kPa
349.27 K	–	0.000263 kPa and 0.000257 kPa and 0.000264 kPa
351.2 K	–	0.000324 kPa and 0.000328 kPa
353.11 K	–	0.000403 kPa and 0.000399 kPa
355.28 K	–	0.000518 kPa and 0.000524 kPa and 0.000532 kPa
357.19 K	–	0.000655 kPa and 0.00065 kPa and 0.000648 kPa
359.1 K	–	0.000797 kPa and 0.00081 kPa and 0.000807 kPa

c1ccc(-c2ccc(-c3ccccc3)cc2)cc1 [p-terphenyl]
Settings	mass density [kg/m3]	vapor or sublimation pressure
–	1200	–
373.27 K	–	0.000127 kPa and 0.000126 kPa and 0.000125 kPa
375.22 K	–	0.000154 kPa and 0.000153 kPa
377.14 K	–	0.000185 kPa and 0.000189 kPa and 0.000182 kPa
379.28 K	–	0.000232 kPa and 0.000233 kPa and 0.000234 kPa
381.21 K	–	0.00028 kPa and 0.000283 kPa and 0.000281 kPa
383.28 K	–	0.000344 kPa and 0.000347 kPa and 0.000348 kPa
385.17 K	–	0.000421 kPa and 0.000417 kPa
387.12 K	–	0.000516 kPa and 0.000498 kPa
389.27 K	–	0.000628 kPa and 0.000626 kPa and 0.000631 kPa
391.16 K	–	0.000748 kPa and 0.000758 kPa and 0.000757 kPa
393.22 K	–	0.000928 kPa and 0.000931 kPa and 0.000922 kPa
395.27 K	–	0.001137 kPa and 0.001131 kPa and 0.001138 kPa

c1ccc(-c2ccccc2-c2ccccc2)cc1 [o-terphenyl]
Settings	mass density [kg/m3]	vapor or sublimation pressure
–	1120	–
312.3 K	–	6.04e-05 kPa and 6.13e-05 kPa and 5.87e-05 kPa
313.79 K	–	7.08e-05 kPa and 7.16e-05 kPa
315.13 K	–	8.28e-05 kPa
315.14 K	–	8.47e-05 kPa and 8.48e-05 kPa
315.78 K	–	7.29e-05 kPa
316.78 K	–	0.000103 kPa and 0.000102 kPa and 0.000104 kPa
318.28 K	–	0.000125 kPa and 0.000123 kPa and 0.000124 kPa
319.64 K	–	0.000143 kPa and 0.000145 kPa and 0.000148 kPa
321.28 K	–	0.000181 kPa and 0.000179 kPa and 0.000174 kPa
322.78 K	–	0.000217 kPa and 0.000212 kPa
324.14 K	–	0.000247 kPa and 0.000249 kPa
325.78 K	–	0.000305 kPa and 0.000308 kPa and 0.0003 kPa
327.28 K	–	0.000368 kPa and 0.00036 kPa and 0.000361 kPa
328.63 K	–	0.000419 kPa and 0.000422 kPa and 0.000423 kPa

— the NIST ThermoML archive (doi:10.1016/j.jct.2007.08.008)
